US20240133884A1, “COMPOSITIONS AND METHODS FOR DETECTING TRYPANOSOMA CRUZI INFECTION” (University of Georgia Research Foundation, Inc., priority 2022, published 2024)
Entries after “also recorded” stand apart in the source; their conditions may differ.

How the values were obtained:
anti-T. cruzi antibodies = assay: Luminex-based multiplex serological analysis in macaques; assay type: in vivo, rhesus macaque (Macaca mulatta); conditions: treated macaques, over 42 months after end of treatment
From the text: For a number of smaller proteins, fusions of up to 2 individual genes are employed for some target proteins in order to expand the array of antibodies being detected while controlling costs and complexity of the assay. (TritrypDb.org identifiers: Tc1=fusion of TcBrA4_0116860 and TcYC6_0028190; Tc2=fusion of TcBrA4_0088420 and TcBrA4_0101960; Tc3=fusion of TcBrA4_0104680 and TcBrA4_0101980; Tc4=fusion of TcBrA4_0028480 and TcBrA4_0088260; Tc5=fusion of TcYC6_0100010 and TcBrA4_0074300; Tc7=fusion of TcYC6_0083710 and TcBrA4_0130080; Tc8=TcYC6_0037170; Tc11=TcYC6_0124160; Tc17=fusion of TcBrA4_0028230 and TcBrA4_0029760; Kn107=TcCLB.508355.250; G10=TcCLB.504199.20). Macaque antibody binding to individual beads in the Multiplex assays was detected with donkey anti-human IgG (H+L) conjugated to phycoerythrin (Jackson ImmunoResearch) in a 1:200 dilution.

T. cruzi = tested on: T. cruzi
Protocol: A total of 22 rhesus macaques that had been confirmed to be serologically- and PCR-positive for T. cruzi were utilized in these studies. Using 19 animals in the treatment group provided 85% power of detecting 100% efficacy. The 19 animals were treated with a 30 mg/kg dose of AN15368 delivered in food treats once a day for 60 days. The remaining three animals on the study were maintained as untreated control animals and received food treats but were not dosed with AN15368.
The selected dose of 30 mg/kg in NHP was determined based upon the following rationale. […] Under light-anesthesia/sedation, peripheral blood samples were collected from each animal prior to treatment and at 7 time points following. Blood analysis (CBC and serum chemistry assays) and physical exams to evaluate the health of the study animals were performed on each animal prior to the beginning of the study and also at three time points during the treatment protocol.
Blood samples from each macaque were collected at various time points and processed for quantification of T. cruzi DNA by real-time qPCR. Between 8-ml of whole blood collected in EDTA anticoagulant tubes was subjected to DNA extraction using the Omega E.Z.N.A. Blood DNA Maxi Kit (Omega Bio-Tek), following the manufacturer's instructions for up to 10 ml whole blood and using a total of 650 μl of elution buffer. Each round of extractions included a negative (no-template) control comprised of 10 ml PBS. The concentration of DNA in the eluted solution was quantified after each extraction using an Epoch microplate spectrophotometer (BioTek).
DNA from each sample was then subjected to a series of two qPCR assays for detection of T. cruzi satellite DNA. […] Positive (DNA extracted from T. cruzi Sylvio X10 clone 4, American Type Culture Collection, ATCC #50800, known concentration 1.7×10^−3 parasite equivalents) and negative (water) controls were included in each PCR plate for both assays. C1000 Touch Bio-Rad CFX96 real-time PCR detection system was used for both assays under the following cycling conditions: (i) initial denaturation, 95°, 3 min; (ii) denaturation, 95° C., 15 s; (iii) annealing, 58° C., 1 min; (iv)×50 cycles. FAM and VIC channels were selected for each read.
Frozen tissues were screened for T. cruzi DNA using 8 mm biopsies (Sklar instruments #96-1130), collecting 3 to 10 individual ˜100 μl tissue punches for each tissue type and one of more pooled sample consisting of five punches from different areas of the tissue, totaling ˜500 μl per pool. The tissues sampled included liver, heart, fat, esophagus, quadricep, bicep, large intestine, and brain, as well as tongue and spleen in a few instances. Two individual and one pooled sample of tissues from an uninfected macaque was collected for each sampling batch. DNA from macaque tissue was extracted and analyzed as previously described (Bustamante, et al., Sci Transl Med 12 (2020)) with the exceptions that the purification was scaled up to accommodate the larger amount of tissue in the pooled samples and the range for the standards was 2.6×10^2-2.6×10^−3 parasite equivalents using the kDNA minicircle S35 and S36 primers.

[1] = Pharmacokinetics in mice (intravenous and oral); assay type: in vivo; conditions: in words
[2] = tested on: T. cruzi extracellular amastigotes; assay: Extracellular amastigote assay (ATPlite ATP production, 48 hours); assay type: cell-based, Trypanosoma cruzi; conditions: in words
Protocol: The in vitro anti-T. cruzi amastiogote activity assay was performed and optimized based on the protocol described previously (Canavaci, et al., PLoS neglected tropical diseases 4, e740 (2010)). The change in tdTomato fluorescence intensity was determined as a measurement of growth over 72 hours of culture. For assaying drug effects on extracellular amastigotes, trypomastigotes were collected from infected Vero cell cultures and converted in acidic media as previously described (Tomlinson, et al., Parasitology 110 (Pt 5), 547-554 (1995)). Amastigotes (50,000/well) were incubated with 2-fold serial dilutions of compounds for 48 hours. The ATP production was used as an indication of growth in this case, and was measured by ATPlite Luminescence ATP Detection Assay System (PerkinElmer). Both fluorescence and luminescence were read using a BioTek Synergy Hybrid Multi-Mode reader equipped with the software Gene5 v 2.0 (BioTek). The dose-response curve was generated by […] analysis with GraphPad Prism v9.4.0 (GraphPad Software). IC50 was determined as the drug concentration that was required to inhibit 50% of growth compared to that of parasites with no drug exposure.

T. cruzi (CL strain) = assay: Rapid in vivo assay: mouse footpad infection with tdTomato-expressing T. cruzi, single oral dose; set-up: species or system Trypanosoma cruzi; conditions: mice, reduced doses (FIG. 1B)
Protocol: Fluorescent intensity of the feet was measured at 2 dpi before compound administration and at 4 dpi in the Maestro in vivo imaging system equipped with the software Maestro 2.1.0 (CRi) as previously described (Fleau, et al., J Med Chem 62, 10362-10375 (2019)). The proliferation index was estimated as PI=[(T4d−T2d)/(mUnt4d−mUnt2d)]*100; where T4d and T2d are the fluorescence intensity of the feet of the treated animals at days 4 and 2 post-infection respectively; mUnt4d and mUnt2d are the average fluorescence intensity of the feet of the untreated animals at 4 and 2 dpi respectively.

[3] = macaques, 30 mg/kg once a day for 60 days, post-treatment time points, 30 mg/kg

| Compound | antibody levels to recombinant T. cruzi proteins (anti-T. cruzi antibodies) | T. cruzi DNA by PCR in post-necropsy tissues (T. cruzi; 9 treated macaques, 84-99 sample sites/animal) | overall safety / toxicity (T. cruzi; 60 day course of treatment in NHPs) | adverse events (T. cruzi; in vivo) | mean ALT and ALP, levels of lymphocytes and monocytes in blood (T. cruzi; in vivo) | cure of chronically infected rhesus macaques (T. cruzi; in words (FIGS. 4A-4K)) | culture of parasites from blood (hemoculture) (T. cruzi; [3]) | parasite DNA in blood (PCR) (T. cruzi; [3]) | efficacy / cure (T. cruzi; naturally infected NHPs, 30 mg/kg, 60 days) | absorption (dose proportionality of exposure in vivo) [1] | sensitivity of extracellular amastigotes [2] | reduction of established focal footpad infection by a single oral dose (T. cruzi (CL strain)) |
| --- | --- | --- | --- | --- | --- | --- | --- | --- | --- | --- | --- | --- |
| Cc1c(C(=O)N[C@H](C(=O)OCC2CCOCC2)C(C)C)ccc2c1B(O)OC2 [AN15368] | declines in antibody levels | negative | no overt safety or reproductive health concerns; also recorded: no overt toxicity | No adverse events | mildly elevated | uniformly cures chronically infected rhesus macaques | remained negative | remained negative | 100% |  |  |  |
| Cc1c(C(=O)N[C@H](C(=O)OCc2ccc(F)c(F)c2)C(C)C)ccc2c1B(O)OC2 [AN14353] |  |  |  |  |  |  |  |  |  | solubility-limited absorption | high sensitivity | activity at reduced doses |
